Columns and labels:
Cdk2 = target: T1, Cdk2 (Homo sapiens, UniProt P24941); experiment: In-cell target engagement: CuAAC biotin tagging, Neutravidin pulldown, anti-Cdk2 western blot; format: cell-based; settings: HeLa cells, 6 hours treatment
T1 construct: endogenous in cells; host or cells: HeLa
Procedure: (§1) To evaluate whether this in vitro activity would translate into in‐cell target engagement, acrylamide 3 (REFCdk2(WT)=5.6, k GSH=0.033 h^−1, k Cdk2(WT)=0.185 h^−1) was synthesized as a target engagement probe, containing an alkyne handle for bio‐orthogonal ligation. HeLa cells were treated with probe 3 and protein lysates subjected to copper(I) catalyzed azide–alkyne cycloaddition (CuAAC)30 to affect biotin conjugation.
(§2) Figure 7 HeLa cells were treated with 3 for 6 hours. After tagging with biotin‐azide, Neutavidin pulldown was performed. Western blot analysis (anti‐Cdk2 and Cdk1) was performed before (Lysate) and after pulldown (PD).
(§3) 100Rfold! dilution! gave! the! optimum! seed! concentration! for! subsequent! crystallization.!Ligand" conjugated" Cdk2:!Crystallisation!
(§4) was! performed! by! mixing! 1! µL! of! labelled! Cdk2! solution! (8! mg! mLR1,! 100! mM! phosphate! buffer)! with! 0.5! µL! of! reservoir! soluR
(§5) tion! (Jeffamine! EDR2003! concentration! range! 18!R!30%! w/v,! 100! mM! HEPES,! pH! range! 7.5!–!8.5)! and! 0.5! µL! diluted! apoR
(§6) Cdk2(WT)!microseed!stock.!For!labelled!Cdk2(WT),!crystals!appeared!within!2–3!days!and!grew!for!another!10–14!days.!
(§7) L.,Molecular,dynamics,simulation, […]
(§8) maps!were!calculated!using!FFT[20]!and!figures!were!prepared!using!PyMol!(Schrödinger).! […]
(§9) Phosphorylation! of! […] Cdk2! during! gel! electrophoresis! and! the! reaction! was! monitored! by! […]

Cdk1 = target: T2, Cdk1 (Homo sapiens, UniProt P06493); experiment: In-cell target engagement: CuAAC biotin tagging, Neutravidin pulldown, anti-Cdk1 western blot; format: cell-based; settings: HeLa cells, 6 hours treatment
T2 construct: endogenous in cells; host or cells: HeLa
T2 sequence (P06493 whole entry): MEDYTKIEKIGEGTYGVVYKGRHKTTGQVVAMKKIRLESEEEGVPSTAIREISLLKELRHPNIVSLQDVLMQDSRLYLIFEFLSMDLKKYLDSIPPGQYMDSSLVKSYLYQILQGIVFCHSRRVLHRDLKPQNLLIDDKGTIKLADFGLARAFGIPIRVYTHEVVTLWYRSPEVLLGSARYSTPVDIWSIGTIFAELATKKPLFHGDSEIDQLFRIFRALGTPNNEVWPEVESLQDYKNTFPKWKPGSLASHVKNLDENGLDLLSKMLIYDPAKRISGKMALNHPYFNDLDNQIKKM
Procedure: as §1, §2, §3, §4, §5, §6, §7, §8, §9

Cdk2(WT) = Cdk2(WT) (Homo sapiens, UniProt P24941); experiment: qIT thiol consumption assay with Cdk2(WT) (Cys177); format: binding; design: made in house; host or cells: E. coli Tuner(DE3)
[1] = qIT (quantitative irreversible tethering) thiol consumption assay with glutathione; settings: compound 0.5 mM, glutathione 5 μM, TCEP-agarose 2 % w/v
Procedure: To measure the kinetics of electrophile‐thiol conjugation we developed quantitative irreversible tethering (qIT), a technique which employs fluorogenic thiol quantification (FTQ) in a high‐throughput thiol consumption assay (Figure 1 a). […] We solved this problem using an immobilized reducing agent (TCEP‐agarose, 2 % w/v), allowing facile separation by centrifugation before conducting the FTQ step (Figure 1 b).
The target thiol (5 μM) is reacted with electrophilic fragments (0.5 mM) under pseudo‐first‐order conditions in the presence of TCEP‐agarose (2 % w/v). Reaction progress is followed by discrete measurements of residual target thiol concentration using the fluorogenic probe CPM and rate constants are derived from exponential regression analysis. b) TCEP‐agarose prevents aerobic thiol oxidation. Glutathione solutions were stored ±TCEP‐agarose (2 % w/v).
Electrophiles were individually reacted with glutathione under pseudo‐first‐order conditions in the presence of TCEP‐agarose. […] Fluorescence measurements were normalized against a DMSO control and exponential regressions used to determine rate constants.
ReactionBplate" setup:!Each! well! of! a! 96Rwell! PCR! plate! was! charged! with! 60–100! µL! of! target! thiol! (GSH! or! protein,! 10! µM)!
and! 4%! w/v! TCEPRagarose! beads! in! 100! mM! phosphate! buffer! (pH! 7.5! or! 8)! and! cooled! to! 4! ˚C.! Reactions! were! started! by!
addition! of! an! equal! volume! of! preRcooled! electrophile! solution! (1! mM,! 2%! DMSO)! in! 0.1! M! phosphate! buffer! (final! concentraR
tion:! thiol! =! 5! µM,! electrophile! =! 0.5! mM,! 2%! w/v! TCEPRagarose! beads),! with! a! minimum! of! 4! wells! per! plate! used! as!
DMSO/thiol! only! controls.! After! mixing,! TCEPRagarose! was! pelleted! by! centrifugation! (1,300! rpm,! 1! min)! and! the! plate! incuR
bated!at!4!˚C.,CPM"Quench:! At! a! series! of! time! points!

- enrichment of Cdk2 after pull-down (western blot) (Cdk2): concentration‐dependent enrichment
- isolation of Cdk1 after pull-down (western blot) (Cdk1): not isolated
- k Cdk2(WT) (pseudo-first-order rate constant) (Cdk2(WT); compound 0.5 mM, Cdk2(WT) 5 μM, TCEP-agarose 2 % w/v): 0.185 h⁻¹
- REF Cdk2(WT) (rate enhancement factor = k protein/k GSH) (Cdk2(WT); k Cdk2(WT)/k GSH): 5.6
Compound: C#CCNC(=O)N1CCN(C(=O)C=C)c2ccccc21 [Acrylamide 3]
- k GSH (pseudo-first-order rate constant) [1]: 0.033 h⁻¹

— article PMC5947712, “High‐Throughput Kinetic Analysis for Target‐Directed Covalent Ligand Discovery” (Angewandte Chemie (International Ed. in English), 2018)
